According to patent US10189835B2, “Derivatives and methods of treating hepatitis B infections” (Novira Therapeutics, Inc., priority 2014, dated 2019):
pEC50: −log10 of the molar value.

Each compound was assayed on HBV replication in HepG2.2.15 cells (assay: HBV replication inhibition assay (BDNA assay)). Settings: 6 days of treatment, encapsidated HBV DNA in supernatant by branched DNA QuantiGene assay, listed as 828 E1.
Type: cell-based
Description: HBV replication inhibition by the compounds of this invention could be determined in cells infected or transfected with HBV, or cells with stably integrated HBV, such as HepG2.2.15 cells (Sells et al. 1987). In this example, HepG2.2.15 cells were maintained in cell culture medium containing 10% fetal bovine serum (FBS), Geneticin, L-glutamine, penicillin and streptomycin. HepG2.2.15 cells could be seeded in 96-well plates at a density of 40,000 cells/well and be treated with serially diluted compounds at a final DMSO concentration of 0.5% either alone or in combination by adding drugs in a checker box format. Cells were incubated with compounds for three days, after which medium was removed and fresh medium containing compounds was added to cells and incubated for another three days. At day 6, supernatant was removed and treated with DNase at 37° C. for 60 minutes, followed by enzyme inactivation at 75° C. for 15 minutes. Encapsidated HBV DNA was released from the virions and covalently linked HBV polymerase by incubating in lysis buffer (Affymetrix QS0010) containing […] proteinase K at 50° C. for 40 minutes. HBV DNA was denatured by addition of 0.2 M NaOH and detected using a branched DNA (BDNA) QuantiGene assay kit according to manufacturer recommendation (Affymetrix). HBV DNA levels could also be quantified using qPCR, based on amplification of encapsidated HBV DNA extraction with QuickExtraction Solution (Epicentre Biotechnologies) and amplification of HBV DNA using HBV specific PCR probes that can hybridize to HBV DNA and a fluorescently labeled probe for quantitation. In addition, cell viability of HepG2.2.15 cells incubated with test compounds alone or in combination was determined by using CellTitre-Glo reagent according to the manufacturer protocol (Promega). The mean background signal from wells containing only culture medium was subtracted from all other samples, and percent inhibition at each compound concentration was calculated by normalizing to signals from HepG2.2.15 cells treated with 0.5% DMSO using equation E1. % inhibition=(DMSOave−Xi)/DMSOave×100% E1: […]
where DMSOave is the mean signal calculated from the wells that were treated with DMSO control (0% inhibition control) and Xi is the signal measured from the individual wells. EC50 values, effective concentrations that achieved 50% inhibitory effect, were determined by non-linear fitting using Graphpad Prism software (San Diego, Calif.) and equation E2 Y=Ymin+(Ymax−Ymin)/(1+10(LogEC50-X)×HillSlope) E2: […]
where Y represents percent inhibition values and X represents the logarithm of compound concentrations.
Selected compounds of the invention were assayed in the HBV replication assay (BDNA assay), as described above and a representative group of these active compounds is shown in Table 3. […] In Table 3, “A” represents 0.01<EC50<0.10; “B” represents 0.10<EC50<0.50; and “C” represents 0.50<EC50<1.0.
CON(C)C(=O)c1n[nH]c2c1CN(C(=O)Nc1cccc(Cl)c1)C(C)C2 (stereo not shown) [Compound 828 E1, N5-(3-chlorophenyl)-N3-methoxy-N3,6-dimethyl-1,4,6,7-tetrahydropyrazolo [4,3-c]pyridine-3,5-dicarboxamide] showed a pEC50 of 7.00 to 8.00.

Same assay, conditions: 6 days of treatment, encapsidated HBV DNA in supernatant by branched DNA QuantiGene assay, listed as 828 E2
CON(C)C(=O)c1n[nH]c2c1CN(C(=O)Nc1cccc(Cl)c1)C(C)C2 (stereo not shown) [Compound 828 E2, N5-(3-chlorophenyl)-N3-methoxy-N3,6-dimethyl-1,4,6,7-tetrahydropyrazolo [4,3-c]pyridine-3,5-dicarboxamide] gave a pEC50 of 6.30 to 7.00.

Same assay, conditions: Hepatitis B virus, HepG2.2.15, 144 h, 6 days of treatment, encapsidated HBV DNA in supernatant by branched DNA QuantiGene assay
CON(C)C(=O)c1n[nH]c2c1CN(C(=O)Nc1cccc(Cl)c1)CC2 [Compound 434, N5-(3-chlorophenyl)-N3-methoxy-N3-methyl-1,4,6,7-tetrahydropyrazolo [4,3-c]pyridine-3,5-dicarboxamide] was tested, and the pEC50 was 7.00 to 8.00.
Work on CCCC(=O)c1n[nH]c2c1CN(C(=O)Nc1cccc(Cl)c1)CC2 [Compound 561] yielded a pEC50 of 7.00 to 8.00.
Work on CN(O)C(=O)c1n[nH]c2c1CN(C(=O)Nc1cccc(Cl)c1)CC2 [Compound 587, N5-(3-chlorophenyl)-N3-hydroxy-N3-methyl-6,7-dihydro-1H-pyrazolo[4,3-c]pyridine-3,5(4H)-dicarboxamide] yielded a pEC50 of 6.00 to 6.30.
With CCN(OC)C(=O)c1n[nH]c2c1CN(C(=O)Nc1cccc(Cl)c1)CC2 [Compound 594, N5-(3-chlorophenyl)-N3-ethyl-N3-methoxy-1,4,6,7-tetrahydropyrazolo [4,3-c]pyridine-3,5-dicarboxamide] the pEC50 was 7.00 to 8.00.
With CON(C(=O)c1n[nH]c2c1CN(C(=O)Nc1cccc(Cl)c1)CC2)C(C)C [Compound 595, N5-(3-chlorophenyl)-N3-isopropyl-N3-methoxy-1,4,6,7-tetrahydropyrazolo [4,3-c]pyridine-3,5-dicarboxamide] the pEC50 was 6.30 to 7.00.
CCON(C)C(=O)c1n[nH]c2c1CN(C(=O)Nc1cccc(Cl)c1)CC2 [Compound 599] was tested, and the pEC50 was 7.00 to 8.00.
CC(C)ON(C)C(=O)c1n[nH]c2c1CN(C(=O)Nc1cccc(Cl)c1)CC2 [Compound 600, N5-(3-chlorophenyl)-N3-isopropoxy-N3-methyl-1,4,6,7-tetrahydropyrazolo[4,3-c]pyridine-3,5-dicarboxamide] was tested, and the pEC50 was 7.00 to 8.00.
With CCC(=O)c1n[nH]c2c1CN(C(=O)Nc1cccc(Cl)c1)CC2 [Compound 695, N-(3-chlorophenyl)-3-propanoyl-1,4,6,7-tetrahydropyrazolo [4,3-c]pyridine-5-carboxamide] the pEC50 was 6.30 to 7.00.
Compound O=C(Nc1cccc(Cl)c1)N1CCc2[nH]nc(C(=O)N3CC(O)CO3)c2C1 (stereo not shown) [Compound 697, N-(3-chlorophenyl)-3-(4-hydroxyisoxazolidine-2-carbonyl)-1,4,6,7-tetrahydropyrazolo [4,3-c]pyridine-5-carboxamide] has a pEC50 of 6.00 to 6.30.
With O=C(Nc1cccc(Cl)c1)N1CCc2[nH]nc(C(=O)N3CC(F)CO3)c2C1 (stereo not shown) [Compound 698, N-(3-chlorophenyl)-3-(4-fluoroisoxazolidine-2-carbonyl)-1,4,6,7-tetrahydropyrazolo[4,3-c]pyridine-5-carboxamide] the pEC50 was 7.00 to 8.00.
In the case of O=C(Nc1cccc(Cl)c1)N1CCc2[nH]nc(C(=O)N3CCCO3)c2C1 [Compound 699, N-(3-chlorophenyl)-3-(isoxazolidine-2-carbonyl)-1,4,6,7-tetrahydropyrazolo[4,3-c]pyridine-5-carboxamide], the pEC50 was 6.30 to 7.00.
CCCON(C)C(=O)c1n[nH]c2c1CN(C(=O)Nc1cccc(Cl)c1)CC2 [Compound 795] gave a pEC50 of 6.30 to 7.00.
CN(OCCO)C(=O)c1n[nH]c2c1CN(C(=O)Nc1cccc(Cl)c1)CC2 [Compound 796] was tested, and the pEC50 was 6.30 to 7.00.
CC(C)CON(C)C(=O)c1n[nH]c2c1CN(C(=O)Nc1cccc(Cl)c1)CC2 [Compound 798] gave a pEC50 of 6.30 to 7.00.
COCCON(C)C(=O)c1n[nH]c2c1CN(C(=O)Nc1cccc(Cl)c1)CC2 [Compound 800] was tested, and the pEC50 was 6.30 to 7.00.
CN(OCC1CC1)C(=O)c1n[nH]c2c1CN(C(=O)Nc1cccc(Cl)c1)CC2 [Compound 803] was tested, and the pEC50 was 6.30 to 7.00.
Compound CN(OC1CCC1)C(=O)c1n[nH]c2c1CN(C(=O)Nc1cccc(Cl)c1)CC2 [Compound 805] has a pEC50 of 7.00 to 8.00.
Compound CN(OC1CCOC1)C(=O)c1n[nH]c2c1CN(C(=O)Nc1cccc(Cl)c1)CC2 (stereo not shown) [Compound 910, N5-(3-chlorophenyl)-N3-methyl-N3-tetrahydrofuran-3-yloxy-1,4,6,7-tetrahydropyrazolo[4,3-c]pyridine-3,5-dicarboxamide] has a pEC50 of 6.30 to 7.00.
With CN1CC(ON(C)C(=O)c2n[nH]c3c2CN(C(=O)Nc2cccc(Cl)c2)CC3)C1 [Compound 912, N5-(3-chlorophenyl)-N3-methyl-N3-(1-methylazetidin-3-yl)oxy-1,4,6,7-tetrahydropyrazolo[4,3-c]pyridine-3,5-dicarboxamide] the pEC50 was 6.30 to 7.00.
CN(C)N(C)C(=O)c1n[nH]c2c1CN(C(=O)Nc1cccc(Cl)c1)CC2 [Compound 937] showed a pEC50 of 7.00 to 8.00.
